According to US20040097594A1 (priority 1998, published 2004):
Like-named read-outs stand apart in the source and are kept apart here.

Key:
HIV-1 protease = HIV-1 protease (Human immunodeficiency virus type 1 group M subtype B, UniProt P04585); test: biochemical; conditions: HIV-1 protease; upper line of each compound's entry; read-out: Ki (enzyme)
HIV-1 (strain IIIB) = test: microbe, parasite or virus in culture; assay type: cell-based; conditions: lower line of each compound's entry, read-out: IC50 (MT-4 cells)
[1] = Human immunodeficiency virus 1, 120 h, MT4 cells infected with HIV-1 strain IIIB, 5 days

Q: CC(C)ON(C[C@@H](O)[C@H](Cc1ccccc1)NC(=O)O[C@H]1CO[C@H]2OCC[C@H]21)S(=O)(=O)c1cccc(N)c1 [Compound 38] was tested. Which Ki (HIV-1 protease) did it give?
A: Its Ki is < 1 nM.

Q: What about the IC50 (HIV-1 (strain IIIB); [1]) of the same compound?
A: The IC50 was ≤ 100 nM.

Q: With Nc1cccc(S(=O)(=O)N(C[C@@H](O)[C@H](Cc2ccccc2)NC(=O)O[C@H]2CCOC2)OC2CCCC2)c1 [Compound 27, (3S)tetrahydro-3-furanyl N-(1S,2R)-3-[[(3-aminophenyl)sulfonyl](cyclopentyloxy)amino]-1-benzyl-2-hydroxypropylcarbamate] as the compound, how does the Ki (HIV-1 protease) read?
A: The Ki was < 1 nM.

Q: And the IC50 (HIV-1 (strain IIIB); [1])?
A: The IC50 was 500 to 1000 nM.

Q: How did the Ki (HIV-1 protease) turn out when COc1ccc(S(=O)(=O)N(C[C@@H](O)[C@H](Cc2ccccc2)NC(=O)[C@H](CC(N)=O)NC(=O)c2ccc3ccccc3n2)OC2CCCC2)cc1 [Compound 50] was run?
A: The Ki was < 1 nM.

Q: What about the IC50 (HIV-1 (strain IIIB); [1]) of the same compound?
A: The IC50 was ≤ 100 nM.

Q: CCC(C)ON(C[C@@H](O)[C@H](Cc1ccccc1)NC(=O)[C@H](CC(N)=O)NC(=O)c1ccc2ccccc2n1)S(=O)(=O)c1ccc(OC)cc1 (stereo partly shown) [Compound 71] was tested. Which Ki (HIV-1 protease) did it give?
A: The Ki was < 1 nM.

Q: What about the IC50 (HIV-1 (strain IIIB); Human immunodeficiency virus 1, IIIB, MT4, 120 h, […]) of the same compound?
A: Its IC50 is ≤ 100 nM.

Q: Which Ki (HIV-1 protease) does the source give for CC(C)(C)OC(=O)N[C@@H](Cc1ccccc1)[C@H](O)CN(OC1CCCC1)S(=O)(=O)c1ccc2[nH]c(NC(=O)N3CCOCC3)nc2c1 [Compound 8] here?
A: Its Ki is < 1 nM.

Q: And the IC50 (HIV-1 (strain IIIB); [1])?
A: Its IC50 is 500 to 1000 nM.

Q: Which results are given for CC(C)(C)OC(=O)N[C@@H](Cc1ccccc1)[C@H](O)CN(OC1CCCC1)S(=O)(=O)c1cccc(N)c1 [Compound 11, tert-butyl N-(1S,2R)-3-[[(3-aminophenyl)sulfonyl](cyclopentyloxy)amino]-1-benzyl-2-hydroxypropylcarbamate]?
A: Ki (HIV-1 protease): 1 to 10 nM; IC50 (HIV-1 (strain IIIB); [1]): > 1000 nM

Q: For O=C(N[C@@H](Cc1ccccc1)[C@H](O)CN(OC1CCCC1)S(=O)(=O)c1ccc2cn[nH]c2c1)O[C@H]1CCOC1 [Compound 58, (3S)Tetrahydro-3-furanyl N-(1S,2R)-1-benzyl-3-[(cyclopentyloxy)(1H-indazol-6-ylsulfonyl)amino]-2-hydroxypropylcarbamate], which Ki (HIV-1 protease) is on record?
A: Its Ki is < 1 nM.

Q: And the IC50 (HIV-1 (strain IIIB); [1])?
A: Its IC50 is 100 to 500 nM.

Q: What does the source list for Nc1nc2ccc(S(=O)(=O)N(C[C@@H](O)[C@H](Cc3ccccc3)NC(=O)OC3COCOC3)OC3CCCC3)cc2s1 [Compound 125]?
A: Ki (HIV-1 protease): < 1 nM; IC50 (HIV-1 (strain IIIB); [1]): ≤ 100 nM

Q: Which Ki (HIV-1 protease) does the source give for COc1ccc(S(=O)(=O)N(C[C@@H](O)[C@H](Cc2ccccc2)NC(=O)OC(C)(C)C)OC2CCOCC2)cc1 [Compound 18, tert-butyl N-(1S,2R)-1-benzyl-2-hydroxy-3-[[(4-methoxyphenyl)sulfonyl](tetrahydro-2H-pyran-4-yloxy)amino]propylcarbamate] here?
A: The Ki was 1 to 10 nM.

Q: And the IC50 (HIV-1 (strain IIIB); [1])?
A: The IC50 was > 1000 nM.

Q: Which Ki (HIV-1 protease) does the source give for O=C(N[C@@H](Cc1ccccc1)[C@H](O)CN(OC1CCCC1)S(=O)(=O)c1ccc2nc[nH]c2c1)O[C@H]1CO[C@H]2OCC[C@H]21 [Compound 46, (3R,3aS,6aR)hexahydrofuro[2,3-b]furan-3-yl N-(1S,2R)-3-[(1H-benzimidazol-6-ylsulfonyl)(cyclopentyloxy)amino]-1-benzyl-2-hydroxypropylcarbamate] here?
A: The Ki was < 1 nM.

Q: What about the IC50 (HIV-1 (strain IIIB); [1]) of the same compound?
A: The IC50 was ≤ 100 nM.

Q: How did the Ki (HIV-1 protease) turn out when COc1ccc(S(=O)(=O)N(C[C@@H](O)[C@H](Cc2ccccc2)NC(=O)OCc2cccnc2)OC2CCCC2)cc1 [Compound 25, 3-pyridylmethyl N-((1S,2R)-1-benzyl-3-(cyclopentyloxy)[(4-methoxyphenyl)sulfonyl]amino-2-hydroxypropyl)carbamate] was run?
A: The Ki was < 1 nM.

Q: What about the IC50 (HIV-1 (strain IIIB); [1]) of the same compound?
A: The IC50 was 500 to 1000 nM.

Q: CNc1cccc(S(=O)(=O)N(C[C@@H](O)[C@H](Cc2ccccc2)NC(=O)O[C@H]2CO[C@H]3OCC[C@H]32)OC2CCCC2)c1 [Compound 45, (3R,3aS,6aR)hexahydrofuro[2,3-b]furan-3-yl N-(1S,2R)-3-[[(3-N-methylaminophenyl)sulfonyl](cyclopentyloxy)amino]-1-benzyl-2-hydroxypropylcarbamate] was tested. Which Ki (HIV-1 protease) did it give?
A: Its Ki is < 1 nM.

Q: And the IC50 (HIV-1 (strain IIIB); [1])?
A: The IC50 was ≤ 100 nM.

Q: Which Ki (HIV-1 protease) does the source give for O=C(N[C@@H](Cc1ccccc1)[C@H](O)CN(OC1CCCCC1)S(=O)(=O)c1ccc(O)cc1)O[C@H]1CO[C@H]2OCC[C@H]21 [Example 160, (3R,3aS,6aR)hexahydrofuro[2,3-b]furan-3-yl(1S,2R)-1-benzyl-3-{(cyclohexyloxy)[(4-hydroxyphenyl)sulfonyl]amino}-2-hydroxypropylcarbamate] here?
A: The Ki was < 1 nM.

Q: And the IC50 (HIV-1 (strain IIIB); [1])?
A: The IC50 was ≤ 100 nM.

Q: How did the Ki (HIV-1 protease) turn out when COc1ccc(S(=O)(=O)N(C[C@@H](O)[C@H](Cc2ccccc2)NC(=O)OC2CO[C@H]3OCC[C@@H]23)OC2CCCC2)cc1OC (stereo partly drawn) [Compound 140, (3R,3aS,6aR)hexahydrofuro[2,3-b]furan-3-yl N-((1S, 2R)-1-benzyl-3-(cyclopentyloxy)[(3,4-dimethoxyphenyl)sulfonyl]amino-2-hydroxypropyl)carbamate] was run?
A: The Ki was < 1 nM.

Q: And the IC50 (HIV-1 (strain IIIB); [1])?
A: The IC50 was ≤ 100 nM.

Q: How did the Ki (HIV-1 protease) turn out when COc1ccc(S(=O)(=O)N(C[C@@H](O)[C@H](Cc2ccccc2)NC(=O)O[C@H]2CO[C@@H]3OCC[C@@H]32)OC2CCCC2)cc1 [Compound 116] was run?
A: The Ki was > 100 nM.

Q: And the IC50 (HIV-1 (strain IIIB); [1])?
A: Its IC50 is 500 to 1000 nM.

Q: What does the source list for COC(=O)Nc1nc2cc(S(=O)(=O)N(C[C@@H](O)[C@H](Cc3ccccc3)NC(=O)[C@H](CC(N)=O)NC(=O)c3ccc4ccccc4n3)OC3CCCC3)ccc2[nH]1 [Compound 51, (2S)-4-Amino-4-oxo-2-[(2-quinolinylcarbonyl)amino]butanamido N-(1S,2R)-1-benzyl-3-[(cyclopentyloxy)(2-{(methoxycarbonyl)amino]-1H-benzimidazol-5-ylsulfonyl)amino]-2-hydroxypropylcarbamate]?
A: Ki (HIV-1 protease): < 1 nM; IC50 (HIV-1 (strain IIIB); [1]): 100 to 500 nM

Q: With COCOc1ccc(S(=O)(=O)N(C[C@@H](O)[C@H](Cc2ccccc2)NC(=O)OC(C)(C)C)OC2CCCC2)cc1 [Compound 109, tert-butyl N-((1S,2R)-1-benzyl-3-(cyclopentyloxy)[(4-methoxymethoxyphenyl)sulfonyl]amino-2-hydroxypropyl)carbamate] as the compound, how does the Ki (HIV-1 protease) read?
A: Its Ki is 10 to 100 nM.

Q: And the IC50 (HIV-1 (strain IIIB); [1])?
A: The IC50 was ≥ 100 nM.

Q: With COc1ccc(S(=O)(=O)N(C[C@@H](O)[C@H](Cc2ccccc2)NC(=O)OC(C)(C)C)Oc2ccccc2)cc1 [Compound 17, tert-butyl N-(1S,2R)-1-benzyl-2-hydroxy-3-[[(4-methoxyphenyl)sulfonyl](phenoxy)amino]propylcarbamate] as the compound, how does the Ki (HIV-1 protease) read?
A: The Ki was 10 to 100 nM.

Q: What about the IC50 (HIV-1 (strain IIIB); [1]) of the same compound?
A: Its IC50 is > 1000 nM.

Q: What does the source list for CCC(CC)ON(C[C@@H](O)[C@H](Cc1ccccc1)NC(=O)O[C@H]1CO[C@H]2OCC[C@H]21)S(=O)(=O)c1ccc2c(c1)OCO2 [Example 162, (3R,3aS,6aR)hexahydrofuro[2,3-b]furan-3-yl(1S,2R)-3-[(1,3-benzodioxol-5-ylsulfonyl)(1-ethylpropoxy)amino]-1-benzyl-2-hydroxypropylcarbamate]?
A: Ki (HIV-1 protease): < 1 nM; IC50 (HIV-1 (strain IIIB); [1]): ≤ 100 nM

Q: How did the Ki (HIV-1 protease) turn out when CNC(=O)NCCNc1cccc(S(=O)(=O)N(CC(O)C(Cc2ccccc2)NC(=O)OC2COC3OCCC23)OC2CCCC2)c1 [Compound 121, (3R,3aS,6aR)hexahydrofuro[2,3-b]furan-3-yl N-(1S,2R)-1-benzyl-3-[(cyclopentyloxy)(3-[(2-[(methylamino)carbonyl]aminoethyl)amino]phenylsulfonyl)amino]-2-hydroxypropylcarbamate and (3S,3aR,6aS)hexahydrofuro[2,3-b]furan-3-yl N-(1S,2R)-1-benzyl-3-[(cyclopentyloxy)(3-[(2-[(methylamino)carbonyl]aminoethyl)amino]phenylsulfonyl)amino]-2-hydroxypropylcarbamate] was run?
A: The Ki was < 1 nM.

Q: And the IC50 (HIV-1 (strain IIIB); [1])?
A: Its IC50 is 100 to 500 nM.
